In the experiment the test system is RPE-Neo or RPE-MYC or RPE-MYC expressing an EGFP-Histone 2B fusion protein. Description: Phenotypic screening assay (arrest in mitosis, change in DNA content, cell death; GE IN-Cell Analyzer 2000). It counts as cell-based. The conditions noted are these: Homo sapiens, compounds 20 nM to 20 μM, 24, 48 or 72 hours.
[1] abbreviates: read-out: Min. Effective conc. for Polyploidy (≥10%).
The mark [2] stands for this setting: min. effective conc., read-out: Mitotic Arrest (≥10%).
Where [3] appears, read: min. effective conc., read-out: Cell Death (>30%).

Among the data in US20240270695A1, “COMPOUNDS, COMPOSITIONS AND METHODS OF TREATING DISORDERS” (Chengdu Anticancer Bioscience LTD, priority 2021, published 2024) are minimal effective concentration values, retold here.

Like-named read-outs stand apart in the source and are kept apart here.

In the case of `COC(=O)C1=C(O)c2ccccc2N(Cc2ccccc2)C(=O)C1` [Example 1, Methyl 1-benzyl-5-hydroxy-2-oxo-2,3-dihydro-1H-benzo[b]azepine-4-carboxylate], the minimal effective concentration by setting is: under setting [1], 30 to 1000 µM; under setting [2], 30 to 1000 µM.
Turning to `COC(=O)C1=C(O)c2ccccc2N(Cc2cccc(C)c2)C(=O)C1` [Example 5, Methyl 5-hydroxy-1-(3-methylbenzyl)-2-oxo-2,3-dihydro-1H-benzo[b]azepine-4-carboxylate], the minimal effective concentration is, setting by setting: under setting [1], 30 to 1000 µM; under setting [3], 30 to 1000 µM; under setting [2], 30 to 1000 µM.
Turning to `COC(=O)C1=C(O)c2ccccc2N(Cc2cc(C)cc(C)c2)C(=O)C1` [Example 6, Methyl 1-(3,5-dimethylbenzyl)-5-hydroxy-2-oxo-2,3-dihydro-1H-benzo[b]azepine-4-carboxylate], the minimal effective concentration under setting [1] lay in the range of 30 to 1000 µM, the minimal effective concentration under setting [3] was 30 to 1000 µM and the minimal effective concentration under setting [2] lay in the range of 30 to 1000 µM.
Consider `COC(=O)C1=C(O)c2ccccc2N(Cc2ccc(C)cc2)C(=O)C1` [Example 7, Methyl 5-hydroxy-1-(4-methylbenzyl)-2-oxo-2,3-dihydro-1H-benzo[b]azepine-4-carboxylate], for which the minimal effective concentration is, setting by setting: under setting [1], 0.001 to 1 µM; under setting [3], 0.001 to 1 µM; under setting [2], 0.001 to 1 µM.
On to `COC(=O)C1=C(O)c2ccccc2N(Cc2ccccc2F)C(=O)C1` [Example 9, Methyl 1-(2-fluorobenzyl)-5-hydroxy-2-oxo-2,3-dihydro-1H-benzo[b]azepine-4-carboxylate], for which the minimal effective concentration is 30 to 1000 µM under setting [1] and 30 to 1000 µM under setting [2].
On to `COC(=O)C1=C(O)c2ccccc2N(Cc2ccc(F)cc2)C(=O)C1` [Example 10, Methyl 1-(4-fluorobenzyl)-5-hydroxy-2-oxo-2,3-dihydro-1H-benzo[b]azepine-4-carboxylate], for which the minimal effective concentration under setting [1] lay in the range of 30 to 1000 µM and the minimal effective concentration under setting [2] fell in the range of 30 to 1000 µM.
Turning to `COC(=O)C1=C(O)c2ccccc2N(Cc2cnc3ccccc3c2)C(=O)C1` [Example 12, Methyl 5-hydroxy-2-oxo-1-(quinolin-3-ylmethyl)-2,3-dihydro-1H-benzo[b]azepine-4-carboxylate], the minimal effective concentration under setting [3] fell in the range of 30 to 1000 µM.
Turning to `COC(=O)C1=C(O)c2ccccc2N(Cc2ccc3ccccc3c2)C(=O)C1` [Example 14, Methyl 5-hydroxy-1-(naphthalen-2-ylmethyl)-2-oxo-2,3-dihydro-1H-benzo[b]azepine-4-carboxylate], the minimal effective concentration lay in the range of 1 to 10 µM under setting [1], 1 to 10 µM under setting [3] and 1 to 10 µM under setting [2].
Take `COC(=O)C1=C(O)c2ccccc2N(Cc2c(C)cccc2C)C(=O)C1` [Example 16, Methyl 1-(2,6-dimethylbenzyl)-5-hydroxy-2-oxo-2,3-dihydro-1H-benzo[b]azepine-4-carboxylate]: under setting [3], the minimal effective concentration is 30 to 1000 µM.
`COC(=O)C1=C(O)c2ccccc2N(Cc2cccc(C)c2C)C(=O)C1` [Example 17, Methyl 1-(2,3-dimethylbenzyl)-5-hydroxy-2-oxo-2,3-dihydro-1H-benzo[b]azepine-4-carboxylate]: the minimal effective concentration lay within 1 to 10 µM under setting [1], 1 to 10 µM under setting [3] and 1 to 10 µM under setting [2].
Regarding `COC(=O)C1=C(O)c2ccccc2N(Cc2ccc(F)cc2F)C(=O)C1` [Example 18, Methyl 1-(2,4-difluorobenzyl)-5-hydroxy-2-oxo-2,3-dihydro-1H-benzo[b]azepine-4-carboxylate], the minimal effective concentration is, setting by setting: under setting [1], 30 to 1000 µM; under setting [3], 30 to 1000 µM; under setting [2], 30 to 1000 µM.
In the case of `COC(=O)C1=C(O)c2ccccc2N(Cc2cc(F)ccc2F)C(=O)C1` [Example 19, Methyl 1-(2,5-difluorobenzyl)-5-hydroxy-2-oxo-2,3-dihydro-1H-benzo[b]azepine-4-carboxylate], the minimal effective concentration is, setting by setting: under setting [1], 30 to 1000 µM; under setting [3], 30 to 1000 µM; under setting [2], 30 to 1000 µM.
Consider `COC(=O)C1=C(O)c2ccccc2N(Cc2cc(F)cc(F)c2)C(=O)C1` [Example 20, Methyl 1-(3,5-difluorobenzyl)-5-hydroxy-2-oxo-2,3-dihydro-1H-benzo[b]azepine-4-carboxylate], for which the minimal effective concentration reads like this: under setting [1], 30 to 1000 µM; under setting [3], 30 to 1000 µM; under setting [2], 30 to 1000 µM.
With `COC(=O)C1=C(O)c2ccccc2N(Cc2cccc(F)c2F)C(=O)C1` [Example 22, Methyl 1-(2,3-difluorobenzyl)-5-hydroxy-2-oxo-2,3-dihydro-1H-benzo[b]azepine-4-carboxylate], under setting [3], the minimal effective concentration was in the range of 30 to 1000 µM.
`COC(=O)C1=C(O)c2ccccc2N(Cc2cccc(OC)c2)C(=O)C1` [Example 27, Methyl 5-hydroxy-1-(3-methoxybenzyl)-2-oxo-2,3-dihydro-1H-benzo[b]azepine-4-carboxylate]: the minimal effective concentration was in the range of 10 to 30 µM under setting [1] and 10 to 30 µM under setting [2].
With `COC(=O)C1=C(O)c2ccccc2N(Cc2cc(F)c(F)c(F)c2)C(=O)C1` [Example 28, Methyl 5-hydroxy-2-oxo-1-(3,4,5-trifluorobenzyl)-2,3-dihydro-1H-benzo[b]azepine-4-carboxylate], the minimal effective concentration under setting [3] fell in the range of 30 to 1000 µM.
Turning to `COC(=O)C1=C(O)c2ccccc2N(Cc2ccc(C)cc2C)C(=O)C1` [Example 29, Methyl 1-(2,4-dimethylbenzyl)-5-hydroxy-2-oxo-2,3-dihydro-1H-benzo[b]azepine-4-carboxylate], the minimal effective concentration was in the range of 1 to 10 µM under setting [1], 1 to 10 µM under setting [3] and 1 to 10 µM under setting [2].
In the case of `COC(=O)C1=C(O)c2ccccc2N(Cc2ccc(C(C)C)cc2)C(=O)C1` [Example 30, Methyl 5-hydroxy-1-(4-isopropylbenzyl)-2-oxo-2,3-dihydro-1H-benzo[b]azepine-4-carboxylate], the minimal effective concentration is, setting by setting: under setting [1], 10 to 30 µM; under setting [3], 10 to 30 µM; under setting [2], 10 to 30 µM.
Regarding `COC(=O)C1=C(O)c2ccccc2N(Cc2ccc(OC(F)F)cc2)C(=O)C1` [Example 33, Methyl 1-(4-(difluoromethoxy)benzyl)-5-hydroxy-2-oxo-2,3-dihydro-1H-benzo[b]azepine-4-carboxylate], the minimal effective concentration runs as follows: under setting [1], 1 to 10 µM; under setting [3], 1 to 10 µM; under setting [2], 1 to 10 µM.
As for `COC(=O)C1=C(O)c2ccccc2N(Cc2ccc(OC)cc2)C(=O)C1` [Example 34, Methyl 5-hydroxy-1-(4-methoxybenzyl)-2-oxo-2,3-dihydro-1H-benzo[b]azepine-4-carboxylate], the minimal effective concentration fell in the range of 0.001 to 1 µM under setting [1], 0.001 to 1 µM under setting [3] and 0.001 to 1 µM under setting [2].
For `COC(=O)C1=C(O)c2ccccc2N(Cc2ccccc2C)C(=O)C1` [Example 35, Methyl 5-hydroxy-1-(2-methylbenzyl)-2-oxo-2,3-dihydro-1H-benzo[b]azepine-4-carboxylate], the minimal effective concentration by setting is: under setting [1], 30 to 1000 µM; under setting [3], 30 to 1000 µM; under setting [2], 30 to 1000 µM.
